Where two headings read alike, the source gives them in different places.
Biological target: T1, Kv1.5 potassium channel (Homo sapiens, UniProt P22460)
T1 construct: expressed in transfected cells
Assay: Whole-cell patch clamp electrophysiological recording of Kv1.5 currents in CHO cells
Type: cell-based
Conditions: CHO cells stably expressing Kv1.5, whole-cell voltage clamp, holding potential −80 mV, one depolarization every 10 seconds
Method: Electrophysiological recordings of potassium currents in Chinese hamster ovary cells stably expressing the gene construct for the Kv1.5 potassium channel subunit were performed using the whole cell configuration of the patch clamp technique (Hamill et al., Pflugers Archiv 391:85, 1981). Cell lines expressing Kv1.5 were prepared using standard techniques known to those skilled in the art. Cells were plated on glass coverslips at a density of 2×10^4 cells/coverslip and used within 24-48 hours. Solutions used for electrophysiological recordings were as follows. Extracellular bathing solutions typically contain (in mM) 132 NaCl, 5.4 KCl, 1.8 CaCl2, 0.8 MgCl2, 10 HEPES, 5 glucose at pH 7.3. Electrode pipette solutions (intracellular solution) for measuring Kv1.5 typically contain (in mM) 100 KF, 40 KCl, 5 NaCl, 2 MgCl2, 5 EGTA, 10 HEPES and 5 glucose at pH 7.4, 295 mOsm and has a resistance of about 1-2 MΩ. The coverslips were placed in a small chamber (volume ˜200 μl) on the mechanical stage of an inverted microscope and perfused (approximately 2 ml/min) with extracellular recording solution. Drug was applied using a series of narrow-bore glass capillary tubes (inner diameter ˜100 μm) positioned approximately 200 μm from the cell.
As soon as the current recording was stable, a compound representative of the present invention was superfused over the cell until steady-state block was observed. Using this technique, the effects of the compound on peak and steady-state current were determined at progressively increasing compound concentrations.
The testing results of selected compounds from Table 2 using this assay and the techniques described above are reported in Table 3 as the percent inhibition of Kv1.5 potassium channel currents at a single concentration of 0.1 μM.

[1] = read-out: Peak Current Inhibition at 0.1 μM (%)
[2] = read-out: Steady-state Current Inhibition at 0.1 μM (%)

T1 sequence (P22460 whole entry): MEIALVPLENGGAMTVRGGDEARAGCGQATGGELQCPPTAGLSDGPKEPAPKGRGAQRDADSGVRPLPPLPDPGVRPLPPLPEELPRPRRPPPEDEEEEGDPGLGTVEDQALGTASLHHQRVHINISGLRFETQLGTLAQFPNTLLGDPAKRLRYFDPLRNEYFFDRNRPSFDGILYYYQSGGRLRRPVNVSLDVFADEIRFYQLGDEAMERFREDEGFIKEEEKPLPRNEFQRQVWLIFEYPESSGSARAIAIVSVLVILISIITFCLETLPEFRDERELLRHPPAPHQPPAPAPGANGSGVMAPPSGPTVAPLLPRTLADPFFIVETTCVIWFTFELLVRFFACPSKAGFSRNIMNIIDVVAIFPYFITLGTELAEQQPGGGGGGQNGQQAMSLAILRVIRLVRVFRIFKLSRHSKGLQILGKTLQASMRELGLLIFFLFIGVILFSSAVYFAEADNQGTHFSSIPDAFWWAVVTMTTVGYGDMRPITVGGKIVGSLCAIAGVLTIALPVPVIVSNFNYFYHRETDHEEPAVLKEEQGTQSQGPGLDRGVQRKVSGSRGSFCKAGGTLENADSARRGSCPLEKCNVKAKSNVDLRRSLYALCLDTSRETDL

SMILES | inhibition at 0.1 µM [1] [%] | inhibition at 0.1 µM [2] [%]
Cn1ccnc1CN(C(=O)[C@@H]1C[C@H]1c1ccccc1)c1ccc2c(c1)[C@@H](NS(=O)(=O)c1ccc(Cl)cc1)CCC2 [Example 4] | 64 | 76
Cc1ncc(CN(C(=O)C2CC2c2ccccc2)c2ccc3c(c2)C(NS(=O)(=O)c2ccc(F)cc2)CCC3)n1CC(C)C (stereo not shown) [Example 5] | 39 | 50
Cn1ccnc1CN(C(=O)[C@@H]1C[C@H]1c1ccccc1)c1ccc2c(c1)[C@@H](NS(=O)(=O)c1ccccc1)CCC2 [Example 6] | 72 | 78
Cc1cccc(CN(C(=O)C2CC2c2ccccc2)c2ccc3c(c2)C(NS(=O)(=O)c2ccccc2)CCC3)n1 (stereo not shown) [Example 7] | 43 | 68
Cc1cccc(CN(C(=O)C2CC2c2ccccc2)c2ccc3c(c2)C(NS(=O)(=O)c2ccccc2Cl)CCC3)n1 (stereo not shown) [Example 9] | 60 | 82
Cc1cccc(CN(C(=O)C2CC2c2ccccc2)c2ccc3c(c2)C(NS(=O)(=O)c2ccc(F)cc2)CCC3)n1 (stereo not shown) [Example 10] | 24 | 53
Cc1cccc(CN(C(=O)[C@@H]2C[C@H]2c2ccccc2)c2ccc3c(c2)[C@@H](NS(=O)(=O)c2ccccc2)CCC3)n1 [Example 12] | 57 | 96
Cc1cccc(CN(C(=O)[C@@H]2C[C@H]2c2ccccc2)c2ccc3c(c2)[C@@H](NS(=O)(=O)c2ccc(F)cc2)CCC3)n1 [Example 13] | 45 | 82
Cc1cccc(CN(C(=O)[C@@H]2C[C@H]2c2ccccc2)c2ccc3c(c2)[C@@H](NS(=O)(=O)c2cccc(Cl)c2)CCC3)n1 [Example 14] | 42 | 81
Cc1cccc(CN(C(=O)[C@@H]2C[C@H]2c2ccccc2)c2ccc3c(c2)[C@@H](NS(=O)(=O)c2ccc(Cl)cc2)CCC3)n1 [Example 16] | 42 | 80
Cn1ccnc1CN(C(=O)[C@H]1C[C@@H]1c1ccc(Cl)cc1)c1ccc2c(c1)[C@@H](NS(=O)(=O)c1ccc(F)cc1)CCC2 [Example 25] | 35 | 69
Cn1ccnc1CN(C(=O)[C@@H]1C[C@H]1c1ccc(F)cc1)c1ccc2c(c1)[C@@H](NS(=O)(=O)c1ccccc1F)CCC2 [Example 29] | 68 | 78
Cn1ccnc1CN(C(=O)[C@@H]1C[C@H]1c1ccc(F)cc1)c1ccc2c(c1)[C@@H](NS(=O)(=O)c1cccc(F)c1)CCC2 [Example 30] | 80 | 93

The remaining lines, values ahead:

inhibition at 0.1 µM [1] [%] | inhibition at 0.1 µM [2] [%] | SMILES
70 | 84 | Cn1ccnc1CN(C(=O)[C@@H]1C[C@H]1c1ccc(F)cc1)c1ccc2c(c1)[C@@H](NS(=O)(=O)c1ccc(F)cc1)CCC2 [Example 31]
70 | 91 | Cn1ccnc1CN(C(=O)[C@@H]1C[C@H]1c1ccc(F)cc1)c1ccc2c(c1)[C@@H](NS(=O)(=O)c1ccc(F)c(Cl)c1)CCC2 [Example 32]
50 | 69 | Cc1cccc(CN(C(=O)[C@@H]2C[C@H]2c2ccc(C(F)(F)F)cc2)c2ccc3c(c2)[C@@H](NS(=O)(=O)c2ccccc2F)CCC3)n1 [Example 39]
47 | 72 | Cn1ccnc1CN(C(=O)[C@@H]1C[C@H]1c1ccc(C(F)(F)F)cc1)c1ccc2c(c1)[C@@H](NS(=O)(=O)c1ccccc1F)CCC2 [Example 43]
71 | 92 | Cn1ccnc1CN(C(=O)[C@@H]1C[C@H]1c1ccc(Cl)cc1)c1ccc2c(c1)[C@@H](NS(=O)(=O)c1ccccc1)CCC2 [Example 44]
70 | 95 | CCc1ccc(S(=O)(=O)N[C@H]2CCCc3ccc(N(Cc4nccn4C)C(=O)[C@@H]4C[C@H]4c4ccc(Cl)cc4)cc32)cc1 [Example 48]
57 | 82 | Cn1ccnc1CN(C(=O)[C@H]1C[C@@H]1c1ccc(Cl)cc1)c1ccc2c(c1)[C@H](NS(=O)(=O)c1ccccc1)CCC2 [Example 54]
